For experiment [1], the target named is T1, Prothrombin (Homo sapiens, UniProt P00734). The experiment is described as follows: Binding affinity against thrombin.
Experiment [2] deals with T1, Prothrombin. The experiment is described as follows: Inhibitory activity against human thrombin.
Experiment [3] addresses T2, Serine protease 1 (Homo sapiens, UniProt P07477). The experiment is described as follows: Tested for the inhibition of trypsin at a concentration of 100 uM.
The target in experiment [4] is T2, Serine protease 1. In words: Inhibitory activity against human trypsin.
For experiment [5], the target named is T2, Serine protease 1. In words: Compound was tested for the binding affinity against trypsin.

T2 sequence (P07477 whole entry): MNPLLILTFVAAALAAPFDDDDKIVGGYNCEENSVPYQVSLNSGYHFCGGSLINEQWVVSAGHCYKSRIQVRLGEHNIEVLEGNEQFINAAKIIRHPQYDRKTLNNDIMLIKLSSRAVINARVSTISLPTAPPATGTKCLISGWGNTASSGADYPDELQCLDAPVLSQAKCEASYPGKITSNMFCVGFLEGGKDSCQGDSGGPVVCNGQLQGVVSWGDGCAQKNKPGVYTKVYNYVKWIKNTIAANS

As to `CCC(C)[C@H]1C(=O)N(CCCc2ccccc2)CC(=O)N1CC(=O)N[C@@H](CC1CCCN(C(=N)N)C1)C(=O)c1nccs1` (stereo partly specified), the affinity in experiment [1] corresponds to a Ki of 200 nM. The concentration for half-maximal inhibition (IC50) in experiment [2] was 3400 nM. This compound gave an inhibition in experiment [3] of 67%.

With `COc1ccc(C[C@H]2C(=O)N(CCCc3ccccc3)CC(=O)N2CC(=O)N[C@@H](CC2CCCN(C(=N)N)C2)C(=O)c2nccs2)cc1` (stereo partly specified), the inhibitory constant (Ki) in experiment [1] was determined as 43 nM. The IC50 was 350 nM in experiment [2] and 3800 nM in experiment [4].

In turn, `C[C@H]1C(=O)N(CCCc2ccccc2)CC(=O)N1CC(=O)N[C@@H](C[C@@H]1CCCN(C(=N)N)C1)C(=O)c1nccs1` showed a Ki in experiment [1] of 65 nM. Besides, the IC50 in experiment [2] came out at 760 nM; in experiment [4] it was 24000 nM.

`N=C(N)N1CCCC(C[C@H](NC(=O)CN2C(=O)CN(CCCc3ccccc3)C(=O)[C@@H]2CC2CCCCC2)C(=O)c2nccs2)C1` (stereo partly specified) returned an inhibition constant Ki in experiment [1] of 75 nM. Besides, the half-inhibitory concentration (IC50) in experiment [2] is 430 nM; in experiment [4] it was 18500 nM.

`N=C(N)N1CCCC(C[C@H](NC(=O)CN2C(=O)CN(Cc3ccccc3)C(=O)[C@@H]2Cc2ccc3ccccc3c2)C(=O)c2nccs2)C1` (stereo partly specified): the IC50 in experiment [4] came to 11100 nM.

In turn, `N=C(N)N1CCCC(C[C@H](NC(=O)CN2C(=O)CN(CCCc3ccccc3)C(=O)[C@@H]2Cc2cccnc2)C(=O)c2nccs2)C1` (stereo partly specified) registered a half-maximal inhibitory concentration (IC50) in experiment [2] of 1000 nM. The compound further gave an inhibition in experiment [3] of 40%.

On to `N=C(N)N1CCCC(C[C@H](NC(=O)CN2CC(=O)N(CCCc3ccccc3)CC2=O)C(=O)c2nccs2)C1` (stereo partly specified), for which the affinity in experiment [1] corresponds to a Ki of 495 nM. The values for the concentration for half-maximal inhibition (IC50) in experiment [2] and in experiment [4] were 4700 nM and 91200 nM, respectively.

Regarding `N=C(N)N1CCC[C@@H](C[C@H](NC(=O)CN2C(=O)CN(CCCc3ccccc3)C(=O)[C@@H]2Cc2ccccc2)C(=O)c2nccs2)C1`, in experiment [1], the affinity, expressed as Ki, was 24 nM. Further, half-maximal inhibition in experiment [2] (IC50) required 240 nM. For the same compound, the inhibition in experiment [3] came to 80%.

For `CC(C)[C@H]1C(=O)N(CCCc2ccccc2)CC(=O)N1CC(=O)N[C@@H](CC1CCCN(C(=N)N)C1)C(=O)c1nccs1` (stereo partly specified), the IC50 was found to be 1800 nM in experiment [2] and 74800 nM in experiment [4].

With `N=C(N)N1CCCC(C[C@H](NC(=O)CN2C(=O)CN(CCCc3ccccc3)C(=O)C2C(c2ccccc2)c2ccccc2)C(=O)c2nccs2)C1` (stereo partly specified), the half-inhibitory concentration (IC50) in experiment [2] came out at 750 nM; in experiment [4] it was 9700 nM.

Consider `N=C(N)NCCC[C@H](NC(=O)CN1C(=O)CN(CCCc2ccccc2)C(=O)[C@@H]1Cc1ccccc1)C(=O)c1nccs1`, for which the figures for the IC50 in experiment [2] and in experiment [4] were 130 nM and 90 nM, respectively.

In experiment [1], `N=C(N)N1CCCC(C[C@H](NC(=O)CN2C(=O)CN(CCCc3ccccc3)C(=O)[C@@H]2CCc2ccccc2)C(=O)c2nccs2)C1` (stereo partly specified) showed a Ki of 105 nM. Moreover, the IC50 in experiment [2] turned out to be 590 nM; in experiment [4] it was 29000 nM.

As for `N=C(N)N1CCCC(C[C@H](NC(=O)CN2C(=O)CN(CCCc3ccccc3)C(=O)[C@@H]2Cc2ccc3ccccc3c2)C(=O)c2nccs2)C1` (stereo partly specified), the figures for the Ki in experiment [5] and in experiment [1] were 13.5 nM and 30 nM, respectively. In addition, the IC50 turned out to be 45 nM in experiment [2] and 27000 nM in experiment [4].

Take `CCCC[C@H]1C(=O)N(CCCc2ccccc2)CC(=O)N1CC(=O)N[C@@H](CC1CCCN(C(=N)N)C1)C(=O)c1nccs1` (stereo partly specified): the affinity in experiment [1] corresponds to a Ki of 98 nM. For the same compound, the IC50 turned out to be 1600 nM in experiment [2] and 42700 nM in experiment [4].

`CN1CC(=O)N(CC(=O)N[C@@H](CC2CCCN(C(=N)N)C2)C(=O)c2nccs2)[C@@H](Cc2ccc3ccccc3c2)C1=O` (stereo partly specified) had a Ki in experiment [1] of 140 nM. Moreover, the half-maximal inhibitory concentration (IC50) in experiment [2] came out at 1270 nM; in experiment [4], 26600 nM.

In the case of `CC(C)C[C@H]1C(=O)N(CCCc2ccccc2)CC(=O)N1CC(=O)N[C@@H](CC1CCCN(C(=N)N)C1)C(=O)c1nccs1` (stereo partly specified), affinity in experiment [1] was put at a Ki of 165 nM. In experiment [2], this compound registered an IC50 of 4300 nM. Further, in experiment [3], the inhibition worked out at 69%.

In experiment [1], `N=C(N)N1CCCC(C[C@H](NC(=O)CN2C(=O)CN(CCCc3ccccc3)C(=O)[C@@H]2Cc2ccc(Cl)cc2)C(=O)c2nccs2)C1` (stereo partly specified) returned a Ki of 40 nM. Further, the values for the IC50 in experiment [2] and in experiment [4] were 170 nM and 33400 nM, respectively.

(Values after ChEMBL document CHEMBL1132668, “The design of potent and selective inhibitors of thrombin utilizing a piperazinedione template: part 1” (Bioorg Med Chem Lett, 1999).)
